Counter-ions that a name gives are not always drawn.
Legend:
Format in all cases: cell-based
Settings in all cases: lowest concentration inhibiting 95% of bacterial growth; in the presence of β lactamase inhibitor (BLi, Relebactam); 22 hours, 35±2° C., OD600
[1] = test system: Acinetobacter baumannii expressing TEM-1, AmpC, and Oxa-24/40 (CL6188)
Procedure: (§1) Antibiotic Activity: Determination of Growth Inhibitory Concentration
(§2) The concentrations of compounds required to inhibit the growth of various strains of bacteria were determined in an assay that assessed bacterial growth by measuring optical density at 600 nm (OD600). The bacterial strains tested included the clinical strains Escherichia coli expressing NDM-1 (CLB30016), Klebsiella pneumoniae expressing KPC-1 (CL6569), Acinetobacter baumannii expressing TEM-1, AmpC, and Oxa-24/40 (CL6188) and Pseudomonas aeruginosa expressing AmpC (CL5701). All compounds were tested in the presence of a β lactamase inhibitor (BLi, Relebactam) in 384-well microplates. The clinical strains were stored as frozen single use stocks, thawed and diluted into 1.1× cation-adjusted Mueller-Hinton II broth to achieve approximately 2×10^5 CFU/mL. Test compounds were dissolved in DMSO and diluted 1:50 in the assay, resulting in a final concentration range of 100 μM to 0.098 μM. On the day of the assay, 1 μL of test compound was added to the plate followed by 4 μL of 50 μg/mL BLi in MOPS buffer and 45 μL of diluted bacteria. Plates were centrifuged at 1000 rpm for 30 seconds, shaken at approximately 800 rpm for 1 minute, and incubated at 35±2° C. for 22 hours. The concentration of BLi used in the assay was […]. At the end of the incubation, absorbance at 600 nm was determined using a spectrophotometer. Inhibition was quantitated by identifying the lowest concentration of test compound that was required to inhibit 95% of the growth of the bacteria. The results for Examples 1-39 are reported in Table I, expressed as the concentration of compound that inhibited 95% of bacterial growth (Minimum Inhibitory Threshold Concentration; MITC95).

[2] = test system: Escherichia coli expressing NDM-1 (CLB30016)
Procedure: as §1, §2

[3] = test system: Klebsiella pneumoniae expressing KPC-1 (CL6569)
Procedure: as §1, §2

[4] = test system: Pseudomonas aeruginosa expressing AmpC (CL5701)
Procedure: as §1, §2

SMILES | AB_CL6188 MITC95 [1] [µM] | EC_CLB30016 MITC95 [2] [µM] | KP_CL6569 MITC95 [3] [µM] | PA_CL5701 MITC95 [4] [µM]
CC1(C)[C@H](NC(=O)/C(=N\O[C@](C)(C(=O)O)[C@H]2CCc3cc(C4CN=C(NCCCN)NC4)ccc3O2)c2csc(N)n2)C(=O)N1OS(=O)(=O)O (stereo partly drawn) [Example 27, (2S)-2-((2R)-6-(2-((3-aminopropyl)amino)-1,4,5,6-tetrahydropyrimidin-5-yl)chroman-2-yl)-2-(((Z)-(1-(2-aminothiazol-4-yl)-2-(((S)-22-dimethyl-4-oxo-1-(sulfooxy)azetidin-3-yl)amino)-2-oxoethylidene)amino)oxy)propanoic Acid] | 12.5 | 12.5 | 0.7813 | 6.25
CC1(C)[C@H](NC(=O)/C(=N/O[C@](C)(C(=O)O)[C@H]2CCc3cc(C4CN=C(NC[C@H](O)CN)NC4)ccc3O2)c2csc(N)n2)C(=O)N1OS(=O)(=O)O.O=CO (stereo partly drawn) [Example 28, 2-(((R)-3-amino-2-hydroxypropyl)amino)-5-((R)-2-((S)-1-((((E)-1-(2-aminothiazol-4-yl)-2-(((S)-2,2-dimethyl-4-oxo-1-(sulfooxy)azetidin-3-yl)amino)-2-oxoethylidene)amino)oxy)-1-carboxyethyl)chroman-6-yl)-3,4,5,6-tetrahydropyrimidin-1-ium formate] | 3.13 | 6.25 | 0.2 | 3.13
CC1(C)[C@H](NC(=O)/C(=N\O[C@](C)(C(=O)O)[C@H]2CCc3cc(C4CN=C(NC[C@@H](O)CN)NC4)ccc3O2)c2csc(N)n2)C(=O)N1OS(=O)(=O)O.O=CO (stereo partly drawn) [Example 29, 2-(((S)-3-amino-2-hydroxypropyl)amino)-5-((R)-2-((S)-1-((((Z)-1-(2-aminothiazol-4-yl)-2-(((S)-2,2-dimethyl-4-oxo-1-(sulfooxy)azetidin-3-yl)amino)-2-oxoethylidene)amino)oxy)-1-carboxyethyl)chroman-6-yl)-3,4,5,6-tetrahydropyrimidin-1-ium formate] | 3.125 | 25 | 1.563 | 6.25
CC1(C)[C@H](NC(=O)/C(=N\O[C@](C)(C(=O)O)[C@H]2CCc3cc(C4CN=C(NCCN)NC4)ccc3O2)c2csc(N)n2)C(=O)N1OS(=O)(=O)O.O=CO (stereo partly drawn) [Example 30, 2-((2-aminoethyl)amino)-5-((R)-2-((S)-1-((((Z)-1-(2-aminothiazol-4-yl)-2-(((S)-2,2-dimethyl-4-oxo-1-(sulfooxy)azetidin-3-yl)amino)-2-oxoethylidene)amino)oxy)-1-carboxyethyl)chroman-6-yl)-3,4,5,6-tetrahydropyrimidin-1-ium formate] | 25 | 25 | 3.125 | 6.25
CC1(C)[C@H](NC(=O)/C(=N\O[C@](C)(C(=O)O)[C@H]2CCc3cc(C4CN=C(NC(CN)CN)NC4)ccc3O2)c2csc(N)n2)C(=O)N1OS(=O)(=O)O.O=CO (stereo partly drawn) [Example 31, 5-((R)-2-((S)-1-((((Z)-1-(2-aminothiazol-4-yl)-2-(((S)-2,2-dimethyl-4-oxo-1-(sulfooxy)azetidin-3-yl)amino)-2-oxoethylidene)amino)oxy)-1-carboxyethyl)chroman-6-yl)-2-((1,3-diaminopropan-2-yl)amino)-3,4,5,6-tetrahydropyrimidin-1-ium formate] | 3.125 | 6.25 | 0.3906 | 3.125
CC1(C)[C@H](NC(=O)/C(=N\O[C@](C)(C(=O)O)[C@H]2CCc3cc(C4=CN=C(NCCCN)NC4)ccc3O2)c2csc(N)n2)C(=O)N1OS(=O)(=O)O [Example 32, 2-((3-aminopropyl)amino)-5-((R)-2-((S)-1-((((Z)-1-(2-aminothiazol-4-yl)-2-(((S)-2,2-dimethyl-4-oxo-1-(sulfooxy)azetidin-3-yl)amino)-2-oxoethylidene)amino)oxy)-1-carboxyethyl)chroman-6-yl)-3,4-dihydropyrimidin-1-ium Formate] | 3.125 | 3.125 | 0.1953 | 3.125
CC1(C)[C@H](NC(=O)/C(=N\O[C@](C)(C(=O)O)[C@H]2CCc3cc(-c4cnc(NCCCN)nc4)ccc3O2)c2csc(N)n2)C(=O)N1OS(=O)(=O)O [Example 33, 3-((5-((R)-2-((S)-1-((((Z)-1-(2-aminothiazol-4-yl)-2-(((S)-2,2-dimethyl-4-oxo-1-(sulfooxy)azetidin-3-yl)amino)-2-oxoethylidene)amino)oxy)-1-carboxyethyl)chroman-6-yl)pyrimidin-2-yl)amino)propan-1-aminium Formate] | 3.125 | 6.25 | 0.3906 | 6.25
C[n+]1cc(-c2ccc3c(c2)CC[C@H]([C@](C)(O/N=C(\C(=O)N[C@@H]2C(=O)N(OS(=O)(=O)[O-])C2(C)C)c2csc(N)n2)C(=O)O)O3)ccc1NCCN [Example 34, mono((S)-3-((Z)-2-(2-aminothiazol-3-ium-4-yl)-2-(((S)-1-((R)-6-(6-((2-ammonioethyl)amino)-1-methylpyridin-1-ium-3-yl)chroman-2-yl)-1-carboxy-ethoxy)imino)acetamido)-2,2-dimethyl-4-oxoazetidin-1-yl sulfate) mono(2,2,2-trifluoroacetate)] | 12.5 | 25 | 0.78 | 25
C[n+]1cc(-c2ccc3c(c2)CC[C@H](CO/N=C(\C(=O)N[C@@H]2C(=O)N(OS(=O)(=O)[O-])C2(C)C)c2csc(N)n2)O3)ccc1NCCN [Example 35, mono((R)-3-((Z)-2-(2-aminothiazol-3-ium-4-yl)-2-((((R)-6-(6-((2-ammonioethyl)amino)-1-methyl-pyridin-1-ium-3-yl)chroman-2-yl)methoxy)imino)acetamido)-2,2-dimethyl-4-oxoazetidin-1-yl sulfate) mono(2,2,2-trifluoroacetate)] | 6.25 | 25 | 1.281 | 50
C[n+]1cc(-c2ccc3c(c2)CC[C@@H](CO/N=C(\C(=O)N[C@@H]2C(=O)N(OS(=O)(=O)[O-])C2(C)C)c2csc(N)n2)O3)ccc1NCCN [Example 36, mono((R)-3-((Z)-2-(2-aminothiazol-3-ium-4-yl)-2-((((S)-6-(6-((2-ammonioethyl)amino)-1-methyl-pyridin-1-ium-3-yl)chroman-2-yl)methoxy)imino)acetamido)-2,2-dimethyl-4-oxoazetidin-1-yl sulfate) mono(2,2,2-trifluoroacetate)] | 3.125 | 12.5 | 0.7813 | 6.25
C[n+]1cc(-c2ccc3c(c2)OCC(CO/N=C(\C(=O)N[C@@H]2C(=O)N(OS(=O)(=O)[O-])C2(C)C)c2csc(N)n2)C3)ccc1NCCN.O=C(O)C(F)(F)F (stereo partly drawn) [Example 38, mono((S)-3-((Z)-2-(2-aminothiazol-3-ium-4-yl)-2-((((S)-7-(6-((2-ammonioethyl)amino)-1-methylpyridin-1-ium-3-yl)chroman-3-yl)methoxy)imino)acetamido)-2,2-dimethyl-4-oxoazetidin-1-yl sulfate) mono(2,2,2-trifluoroacetate)] | 6.25 | 6.25 | 0.3906 | 6.25
CC1(C)[C@H](NC(=O)/C(=N\O[C@](C)(C(=O)O)[C@H]2CCc3cc(-c4ccc5[n+](c4)CC(CN)CN5CCN)ccc3O2)c2csc(N)n2)C(=O)N1OS(=O)(=O)[O-].O=CO (stereo partly drawn) [Example 39] | 7.292 | 12.5 | 0.3255 | 3.125

Source: patent publication US11433055B2, “Chromane monobactam compounds for the treatment of bacterial infections” (priority 2017, dated 2022)
